The source of these data is US20120095067A1, “PHARMACEUTICAL COMPOSITION CONTAINING CARBOXYLOSARTAN AND A PRODUCTION METHOD THEREFOR” (JIN YANG PHARM. CO., LTD., priority 2009, published 2012).

Molecules are shown by their SMILES.

For data set [1] the following is noted: relative to losartan; cited from earlier work.
A short description of data set [2]: Dissolution experiment, paddle method, 900 ml medium, 50 rpm. In kind it is physicochemical. The method, then:
By using the prepared Comparative example 1, dissolution experiments was made in a buffer having a pH of 1.2 (prepared by mixing 2.0 g of sodium chloride with 7.0 ml of hydrochloric acid and adding purified water until it totals 1 liter), a buffer having a pH of 4.0 (prepared by mixing 0.05 mol/L acetic acid solution with 0.05 mol/L sodium acetate solution (41:9) and adjusting a pH to 4.0), a buffer having a pH of 6.8 (prepared by mixing 250 ml of 0.2 mol/L potassium dihydrogen phosphate test solution with 118 ml of 0.2 mol/L sodium hydroxide test solution and adding water until it totals 1 liter), and purified water. In this instance, a paddle method was used, an amount of a dissolution medium was 900 ml, and a paddle rotation rate was 50 rpm. Like Comparative example 1, the dissolution of Examples 1-4 in a buffer having a pH of 1.2 was evaluated. Like Example 1, the dissolution of Examples 5-10 in a buffer having a pH of 1.2 was evaluated. Like Comparative example 1, the dissolution of Example 9 in different dissolution media was evaluated.

Turning to `CCCCc1nc(Cl)c(C(=O)O)n1Cc1ccc(-c2ccccc2-c2nnn[nH]2)cc1` [losartan carboxylic acid, 2-butyl-4-chloro-1-[(2′-(1H-tetrazol-5-yl)[1,1′-biphenyl]-4-yl)methyl]-1H-imidazole-5-carboxylic acid], the “half life compared with losartan” value in data set [1] is recorded as “longer”. In data set [2], the “behaviour on contact with purified water or a buffer” value is “gelled”.
